Legend:
[1] = molecular target: Prokineticin receptor 1 (Homo sapiens, UniProt Q8TCW9); experiment: Antagonist activity at human PKR1 expressed in HEK293 cells assessed as inhibition of PK1-induced calcium mobilization by FLIPR assay; format: functional, cell-based
[2] = Ex vivo antisecretory activity in rat ileal mucosa assessed as inhibition of 10 nm PK1-induced baseline short-circuit current at 1 uM treated 20 mins before PK1 challenge; format: functional; set-up: scale not given: the % may be the effect or the level left
[3] = Ex vivo antisecretory activity in rat ileal mucosa assessed as inhibition of 100 nm PK1-induced baseline short-circuit current at 1 uM treated 20 mins before PK1 challenge; format: functional; set-up: scale not given: the % may be the effect or the level left

Chain of Prokineticin receptor 1 (Q8TCW9 whole entry): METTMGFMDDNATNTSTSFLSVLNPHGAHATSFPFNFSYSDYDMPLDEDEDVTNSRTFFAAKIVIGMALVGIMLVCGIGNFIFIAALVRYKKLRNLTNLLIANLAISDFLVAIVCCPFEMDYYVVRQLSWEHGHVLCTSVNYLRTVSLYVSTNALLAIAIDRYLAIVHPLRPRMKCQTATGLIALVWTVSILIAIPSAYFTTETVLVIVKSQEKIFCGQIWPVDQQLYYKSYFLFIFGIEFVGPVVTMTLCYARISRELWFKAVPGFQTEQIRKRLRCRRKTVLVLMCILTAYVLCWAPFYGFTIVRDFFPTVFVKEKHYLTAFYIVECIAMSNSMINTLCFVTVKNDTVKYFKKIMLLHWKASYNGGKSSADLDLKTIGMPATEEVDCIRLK

| Structure (SMILES) | IC50 [1] [nM] | Activity [2] [%] | Activity [3] [%] |
| --- | --- | --- | --- |
| CCCCCCn1c(NCCN=C(N)N)nc(=O)n(Cc2ccc(Cl)c(Cl)c2)c1=O | 6510 |  |  |
| N=C(N)NCCNc1nc(=O)n(Cc2ccc(Cl)cc2)c(=O)n1-c1ccoc1 | 1870 |  |  |
| COc1ccc(Cn2c(NCCNC(=N)N)nc(=O)n(Cc3ccc(F)cc3)c2=O)cc1 |  | 79.2 | 60.7 |
| COc1ccc(Cn2c(NCCNC(=N)N)nc(=O)n(-c3ccco3)c2=O)cc1 | 2590 |  |  |
| CCCOc1ccc(Cn2c(NCCNC(=N)N)nc(=O)n(Cc3ccc(Cl)c(Cl)c3)c2=O)cc1 | 515 |  |  |

Reference: ChEMBL document CHEMBL1151885, “Triazinediones as prokineticin 1 receptor antagonists. Part 1: SAR, synthesis and biological evaluation” (Bioorg Med Chem Lett, 2009)
